Activity calls are given as the source filed them. No cut-off for these calls is given here.
Key:
[1] = biological target: Calcium/calmodulin-dependent protein kinase type II subunit beta (Homo sapiens) (UniProt Q13554); experiment: Inhibition of CaMK2b Lys2 labeling site in human Huh-7 cells at 1 uM by KiNativ Profiling analysis relative to control; format: cell-based
[2] = biological target: T1, DNA-PK/Ku70/Ku85 (Homo sapiens) (UniProt P78527+P12956+P13010); experiment: Inhibition of DNAPK ATP labeling site harbouring GHDEREHPFLVKGGEDLR in human Huh-7 cell lysate at 1 uM by KiNativ Profiling analysis relative to control; format: subcellular
[3] = biological target: Phosphatidylinositol 4,5-bisphosphate 3-kinase catalytic subunit beta isoform (Homo sapiens) (UniProt P42338); experiment: Inhibition of PIK3CB ATP labeling site harbouring VFGEDSVGVIFKNGDDLRQDMLTLQMLR in human Huh-7 cells at 1 uM by KiNativ Profiling analysis relative to control; format: cell-based
[4] = biological target: Serine/threonine-protein kinase/endoribonuclease IRE1 (Homo sapiens) (UniProt O75460); experiment: Inhibition of IRE1 Lys2 labeling site in human Huh-7 cell lysate at 1 uM by KiNativ Profiling analysis relative to control; format: subcellular
[5] = biological target: Calcium/calmodulin-dependent protein kinase type II subunit delta (Homo sapiens) (UniProt Q13557); experiment: Inhibition of CaMK2d Lys1 labeling site harbouring IPTGQEYAAKIINTKK in human Huh-7 cells at 1 uM by KiNativ Profiling analysis relative to control; format: cell-based
Calcium/calmodulin-dependent protein kinase type II subunit delta (Homo sapiens), sequence (Q13557 whole entry, the tested form may be a part): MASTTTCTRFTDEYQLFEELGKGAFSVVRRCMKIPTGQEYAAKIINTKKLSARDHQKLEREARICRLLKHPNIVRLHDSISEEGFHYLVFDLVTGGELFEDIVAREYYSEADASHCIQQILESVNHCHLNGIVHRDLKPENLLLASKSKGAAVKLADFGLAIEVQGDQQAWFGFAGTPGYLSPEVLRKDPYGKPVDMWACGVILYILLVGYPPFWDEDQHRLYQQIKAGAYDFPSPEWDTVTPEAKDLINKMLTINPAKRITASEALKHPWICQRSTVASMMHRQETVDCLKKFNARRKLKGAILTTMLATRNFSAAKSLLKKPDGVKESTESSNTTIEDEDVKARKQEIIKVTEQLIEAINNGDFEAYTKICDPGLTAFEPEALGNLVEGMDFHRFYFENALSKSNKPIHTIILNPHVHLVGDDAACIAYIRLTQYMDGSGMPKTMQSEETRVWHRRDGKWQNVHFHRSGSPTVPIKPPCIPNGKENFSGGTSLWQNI

[6] = biological target: Ribosomal protein S6 kinase alpha-5 (Homo sapiens) (UniProt O75582); experiment: Inhibition of N-terminal RPS6KA5 kinase domain 1 (unknown origin) at 1 uM by Ambit Kinomescan binding assay relative to control
[7] = biological target: Homeodomain-interacting protein kinase 1 (Homo sapiens) (UniProt Q86Z02); experiment: Inhibition of HIPK1 (unknown origin) at 1 uM by Ambit Kinomescan binding assay relative to control; values are per cent of control
[8] = biological target: RAC-gamma serine/threonine-protein kinase (Homo sapiens) (UniProt Q9Y243); experiment: Inhibition of AKT3 (unknown origin) at 1 uM by Ambit Kinomescan binding assay relative to control
RAC-gamma serine/threonine-protein kinase (Homo sapiens), sequence (Q9Y243 whole entry): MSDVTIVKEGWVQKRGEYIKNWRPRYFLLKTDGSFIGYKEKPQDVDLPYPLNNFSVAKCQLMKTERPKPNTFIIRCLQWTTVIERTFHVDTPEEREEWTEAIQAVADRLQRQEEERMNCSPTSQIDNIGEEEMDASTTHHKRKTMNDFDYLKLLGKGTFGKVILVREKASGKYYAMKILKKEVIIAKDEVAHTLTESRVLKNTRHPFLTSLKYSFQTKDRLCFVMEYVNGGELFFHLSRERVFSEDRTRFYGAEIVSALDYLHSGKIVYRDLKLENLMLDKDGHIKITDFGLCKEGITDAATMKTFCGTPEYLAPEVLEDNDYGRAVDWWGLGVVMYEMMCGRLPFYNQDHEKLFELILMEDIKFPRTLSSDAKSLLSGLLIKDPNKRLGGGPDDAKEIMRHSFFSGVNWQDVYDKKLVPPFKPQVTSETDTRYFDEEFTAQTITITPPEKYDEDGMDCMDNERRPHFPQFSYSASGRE

[9] = biological target: Serine/threonine-protein kinase B-raf (Homo sapiens, UniProt P15056); experiment: Inhibition of BRAF (unknown origin) at 1 uM by Ambit Kinomescan binding assay relative to control
Serine/threonine-protein kinase B-raf, sequence (P15056 whole entry): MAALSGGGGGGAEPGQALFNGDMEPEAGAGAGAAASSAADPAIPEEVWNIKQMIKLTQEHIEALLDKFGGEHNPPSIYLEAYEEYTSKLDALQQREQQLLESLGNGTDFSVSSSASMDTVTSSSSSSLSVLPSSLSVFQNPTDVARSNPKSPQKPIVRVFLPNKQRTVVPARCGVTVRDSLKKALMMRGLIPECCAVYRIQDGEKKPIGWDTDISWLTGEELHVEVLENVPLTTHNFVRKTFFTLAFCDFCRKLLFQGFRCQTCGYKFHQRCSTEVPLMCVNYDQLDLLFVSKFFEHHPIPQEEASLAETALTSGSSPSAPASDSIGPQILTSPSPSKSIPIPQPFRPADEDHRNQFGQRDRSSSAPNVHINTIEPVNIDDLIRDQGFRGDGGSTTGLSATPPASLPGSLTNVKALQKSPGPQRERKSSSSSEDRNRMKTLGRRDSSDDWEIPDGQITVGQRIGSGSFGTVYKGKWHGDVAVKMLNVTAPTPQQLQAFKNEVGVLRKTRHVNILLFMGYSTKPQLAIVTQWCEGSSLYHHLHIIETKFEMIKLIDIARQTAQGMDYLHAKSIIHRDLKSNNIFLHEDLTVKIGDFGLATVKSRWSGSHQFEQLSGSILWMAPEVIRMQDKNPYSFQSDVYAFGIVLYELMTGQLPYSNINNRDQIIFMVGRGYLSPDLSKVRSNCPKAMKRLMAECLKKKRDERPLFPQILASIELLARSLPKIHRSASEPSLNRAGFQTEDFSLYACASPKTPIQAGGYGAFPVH

[10] = biological target: Serine/threonine-protein kinase PAK 5 (Homo sapiens) (UniProt Q9P286); experiment: Inhibition of PAK7 (unknown origin) at 1 uM by Ambit Kinomescan binding assay relative to control
[11] = biological target: Receptor tyrosine-protein kinase erbB-3 (Homo sapiens) (UniProt P21860); experiment: Inhibition of ERBB3 (unknown origin) at 1 uM by Ambit Kinomescan binding assay relative to control
Receptor tyrosine-protein kinase erbB-3 (Homo sapiens), sequence (P21860 whole entry): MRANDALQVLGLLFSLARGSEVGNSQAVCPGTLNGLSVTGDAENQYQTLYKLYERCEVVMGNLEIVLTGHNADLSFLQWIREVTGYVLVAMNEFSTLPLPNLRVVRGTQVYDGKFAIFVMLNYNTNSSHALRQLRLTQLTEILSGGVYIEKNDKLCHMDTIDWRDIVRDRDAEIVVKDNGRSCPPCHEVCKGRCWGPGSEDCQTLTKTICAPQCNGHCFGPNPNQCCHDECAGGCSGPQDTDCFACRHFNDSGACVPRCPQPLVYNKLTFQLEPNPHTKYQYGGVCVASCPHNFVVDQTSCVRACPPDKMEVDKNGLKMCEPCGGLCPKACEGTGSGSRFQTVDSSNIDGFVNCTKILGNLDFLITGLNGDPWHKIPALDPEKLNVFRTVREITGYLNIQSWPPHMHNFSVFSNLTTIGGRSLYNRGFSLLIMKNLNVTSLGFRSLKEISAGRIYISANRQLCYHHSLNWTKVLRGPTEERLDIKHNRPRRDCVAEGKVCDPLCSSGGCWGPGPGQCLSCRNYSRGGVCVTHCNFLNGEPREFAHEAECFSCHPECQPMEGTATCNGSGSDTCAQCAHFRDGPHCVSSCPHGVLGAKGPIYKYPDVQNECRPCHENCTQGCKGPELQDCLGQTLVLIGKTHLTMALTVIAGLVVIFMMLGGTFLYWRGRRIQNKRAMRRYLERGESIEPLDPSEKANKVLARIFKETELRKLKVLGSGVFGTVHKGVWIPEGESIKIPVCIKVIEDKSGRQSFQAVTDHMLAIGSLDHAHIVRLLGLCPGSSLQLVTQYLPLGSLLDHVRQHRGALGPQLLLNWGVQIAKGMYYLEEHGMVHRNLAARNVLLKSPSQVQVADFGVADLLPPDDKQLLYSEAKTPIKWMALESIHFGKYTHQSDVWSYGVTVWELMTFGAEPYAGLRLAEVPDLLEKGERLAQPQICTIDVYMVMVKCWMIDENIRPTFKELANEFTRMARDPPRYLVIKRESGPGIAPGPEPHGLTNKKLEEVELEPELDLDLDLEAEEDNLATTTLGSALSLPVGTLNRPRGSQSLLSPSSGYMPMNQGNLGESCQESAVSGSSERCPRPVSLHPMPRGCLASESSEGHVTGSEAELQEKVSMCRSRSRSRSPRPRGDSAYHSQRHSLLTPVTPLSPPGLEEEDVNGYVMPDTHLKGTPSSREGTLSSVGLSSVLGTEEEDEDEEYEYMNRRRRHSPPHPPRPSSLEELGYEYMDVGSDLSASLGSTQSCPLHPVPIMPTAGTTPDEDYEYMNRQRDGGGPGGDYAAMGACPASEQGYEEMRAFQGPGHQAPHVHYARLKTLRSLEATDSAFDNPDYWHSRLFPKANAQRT

[12] = biological target: Serine/threonine-protein kinase MARK1 (Homo sapiens) (UniProt Q9P0L2); experiment: Inhibition of MARK1 Lys2 labeling site in human A-375 cells at 0.05 uM by KiNativ Profiling analysis relative to control; format: cell-based
[13] = tested on: Epidermal growth factor receptor (Homo sapiens), P00533 [L858R,T790M]; experiment: Inhibition of EGFR L858R/T790M mutant (unknown origin) at 1 uM by Ambit Kinomescan binding assay relative to control
Epidermal growth factor receptor (Homo sapiens), P00533 [L858R,T790M], sequence (P00533 whole entry T790M/L858R, looked up): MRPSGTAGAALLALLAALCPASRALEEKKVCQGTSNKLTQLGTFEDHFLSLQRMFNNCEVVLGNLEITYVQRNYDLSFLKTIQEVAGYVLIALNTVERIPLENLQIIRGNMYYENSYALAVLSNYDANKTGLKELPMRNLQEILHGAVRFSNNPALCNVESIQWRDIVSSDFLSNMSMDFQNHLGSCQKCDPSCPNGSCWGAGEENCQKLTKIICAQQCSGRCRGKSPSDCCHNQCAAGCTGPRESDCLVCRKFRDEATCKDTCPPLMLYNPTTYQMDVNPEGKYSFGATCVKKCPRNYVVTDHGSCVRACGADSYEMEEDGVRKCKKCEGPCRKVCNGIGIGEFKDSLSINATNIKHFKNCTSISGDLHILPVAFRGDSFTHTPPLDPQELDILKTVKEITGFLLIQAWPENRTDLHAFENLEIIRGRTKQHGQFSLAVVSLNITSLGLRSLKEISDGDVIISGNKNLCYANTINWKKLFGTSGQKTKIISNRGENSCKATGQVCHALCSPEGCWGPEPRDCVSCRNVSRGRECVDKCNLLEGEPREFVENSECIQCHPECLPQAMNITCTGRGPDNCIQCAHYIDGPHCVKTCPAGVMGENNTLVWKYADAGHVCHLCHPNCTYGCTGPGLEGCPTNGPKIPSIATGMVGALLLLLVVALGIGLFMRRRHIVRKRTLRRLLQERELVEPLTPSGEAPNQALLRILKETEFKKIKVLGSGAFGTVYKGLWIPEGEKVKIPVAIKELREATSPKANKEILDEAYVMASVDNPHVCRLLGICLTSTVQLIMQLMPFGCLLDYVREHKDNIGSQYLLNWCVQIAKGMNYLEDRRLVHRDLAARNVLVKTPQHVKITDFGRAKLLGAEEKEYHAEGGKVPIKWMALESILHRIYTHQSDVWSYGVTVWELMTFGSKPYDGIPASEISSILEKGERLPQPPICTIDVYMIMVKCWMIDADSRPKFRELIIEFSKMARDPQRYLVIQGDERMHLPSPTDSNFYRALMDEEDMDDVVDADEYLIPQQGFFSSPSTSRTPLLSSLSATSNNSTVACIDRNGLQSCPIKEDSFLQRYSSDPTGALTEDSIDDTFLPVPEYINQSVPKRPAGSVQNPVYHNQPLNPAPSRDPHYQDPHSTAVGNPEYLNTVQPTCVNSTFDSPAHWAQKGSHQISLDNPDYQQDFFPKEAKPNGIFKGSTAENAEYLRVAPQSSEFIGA

[14] = biological target: Cyclin-dependent kinase 4 (Homo sapiens) (UniProt P11802); experiment: Inhibition of CDK4 Lys2 labeling site in human A-375 cells at 0.05 uM by KiNativ Profiling analysis relative to control; format: cell-based
293-IL-1R = experiment: Inhibition of IL-1alpha induced p38 phosphorylation level in human 293-IL-1R cells preincubated for 1 hr followed by IL-1 alpha stimulation and measured after 30 mins by Western blot analysis; format: functional, cell-based; settings: dose 0.01-10 µM
[15] = biological target: Receptor tyrosine-protein kinase erbB-4 (Homo sapiens) (UniProt Q15303); experiment: Inhibition of ERBB4 (unknown origin) at 10 uM by Ambit Kinomescan binding assay
[16] = biological target: T1, DNA-PK/Ku70/Ku85 (Homo sapiens); experiment: Inhibition of DNAPK ATP labeling site harbouring KGGSWIQEINVAEKNWYPR in human A-375 cells at 5 uM by KiNativ Profiling analysis relative to control; format: cell-based
[17] = biological target: T2, Inhibitor of nuclear factor kappa-B kinase subunit alpha (Homo sapiens) (UniProt O15111); experiment: Inhibition of IKK-alpha (unknown origin) at 10 uM by Ambit Kinomescan binding assay relative to control; values are per cent of control
T2 sequence (whole entry): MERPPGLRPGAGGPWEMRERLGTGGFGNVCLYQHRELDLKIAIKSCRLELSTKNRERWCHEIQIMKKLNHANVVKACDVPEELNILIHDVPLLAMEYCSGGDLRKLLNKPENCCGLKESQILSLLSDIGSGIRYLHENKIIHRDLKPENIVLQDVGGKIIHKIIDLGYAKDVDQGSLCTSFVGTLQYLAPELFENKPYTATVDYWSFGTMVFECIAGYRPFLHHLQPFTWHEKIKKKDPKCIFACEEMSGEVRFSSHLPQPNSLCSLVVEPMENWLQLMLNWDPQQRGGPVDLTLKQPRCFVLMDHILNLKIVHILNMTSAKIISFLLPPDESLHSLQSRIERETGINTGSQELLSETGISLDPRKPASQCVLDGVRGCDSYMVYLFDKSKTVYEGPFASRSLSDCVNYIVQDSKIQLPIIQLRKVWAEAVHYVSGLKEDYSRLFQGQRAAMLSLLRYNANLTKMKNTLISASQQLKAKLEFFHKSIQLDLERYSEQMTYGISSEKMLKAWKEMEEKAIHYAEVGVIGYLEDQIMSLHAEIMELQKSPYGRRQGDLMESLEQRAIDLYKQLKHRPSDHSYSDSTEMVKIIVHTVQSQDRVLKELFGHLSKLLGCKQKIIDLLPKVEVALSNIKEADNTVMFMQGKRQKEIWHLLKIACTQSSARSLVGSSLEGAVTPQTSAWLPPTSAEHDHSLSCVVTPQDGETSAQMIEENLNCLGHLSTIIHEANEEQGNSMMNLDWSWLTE

[18] = Inhibition of NEK6/7 K2 labeling site harbouring DIKPANVFITATGVVK in human Huh-7 cells at 1 uM by KiNativ Profiling analysis relative to control; settings: condition cancer
[19] = biological target: Hepatocyte growth factor receptor (Homo sapiens) (UniProt P08581); experiment: Inhibition of MET (unknown origin) at 10 uM by Ambit Kinomescan binding assay
[20] = biological target: Mitogen-activated protein kinase kinase kinase 4 (Homo sapiens) (UniProt Q9Y6R4); experiment: Inhibition of MAP3K4 K2 labeling site in human Huh-7 cells at 10 uM by KiNativ Profiling analysis relative to control; format: cell-based
[21] = biological target: Dual specificity mitogen-activated protein kinase kinase 2 (Homo sapiens) (UniProt P36507); experiment: Inhibition of MAP2K2 Lys1 labeling site in human A-375 cells at 0.05 uM by KiNativ Profiling analysis relative to control; format: cell-based

Calcium/calmodulin-dependent protein kinase type II subunit beta (Homo sapiens), sequence (Q13554 whole entry): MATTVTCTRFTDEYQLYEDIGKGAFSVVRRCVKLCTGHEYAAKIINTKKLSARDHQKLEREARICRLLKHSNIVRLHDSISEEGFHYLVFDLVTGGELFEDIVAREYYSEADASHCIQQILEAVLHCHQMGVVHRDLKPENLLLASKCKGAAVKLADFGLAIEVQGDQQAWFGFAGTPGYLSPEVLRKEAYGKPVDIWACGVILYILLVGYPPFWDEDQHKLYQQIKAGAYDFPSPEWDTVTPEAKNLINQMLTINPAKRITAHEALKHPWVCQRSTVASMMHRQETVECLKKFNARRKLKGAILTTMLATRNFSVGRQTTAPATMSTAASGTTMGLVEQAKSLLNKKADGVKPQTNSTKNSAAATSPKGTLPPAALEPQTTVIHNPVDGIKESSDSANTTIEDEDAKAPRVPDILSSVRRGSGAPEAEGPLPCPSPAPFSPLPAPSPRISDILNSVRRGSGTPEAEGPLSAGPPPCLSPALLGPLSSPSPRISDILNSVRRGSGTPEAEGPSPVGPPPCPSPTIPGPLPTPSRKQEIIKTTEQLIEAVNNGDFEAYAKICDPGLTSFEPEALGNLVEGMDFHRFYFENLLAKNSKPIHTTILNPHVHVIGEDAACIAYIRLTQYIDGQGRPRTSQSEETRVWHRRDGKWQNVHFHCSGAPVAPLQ

CNc1cc(Oc2cc(C(=O)Nc3cc(N4CCN(C)CC4)cc(C(F)(F)F)c3)ccc2C)ncn1
inhibition [1]: 20.3%
inhibition [2]: 7.9%
inhibition [3]: 14%
inhibition [4]: -2.5%
inhibition [5]: 11.6%

CCN1CCN(Cc2ccc(NC(=O)c3ccc(C)c(/C=C/c4cnc5[nH]ccc5c4OC)c3)cc2C(F)(F)F)CC1
inhibition [6]: 62%
residual activity [7]: 74%
inhibition [8]: 100%
inhibition [9]: 17%
inhibition [10]: 70%
inhibition [11]: 100%
inhibition [12]: 17.5%
inhibition [13]: 100%
inhibition [14]: -10%

CCN1CCN(Cc2ccc(NC(=O)c3ccc(C)c(Oc4ccnc5[nH]ccc45)c3)cc2C(F)(F)F)CC1
inhibition (293-IL-1R): Dose-Dependent Effect
inhibition [15]: 28%
inhibition [16]: 7.9%
percent of control [17]: 0.95%
inhibition at 1 µM [18]: -13.1%
inhibition [19]: inactive
inhibition [20]: 5.2%
inhibition [21]: 2.9%

From ChEMBL document CHEMBL5696442, “Discovery of type II inhibitors of TGFβ-activated kinase 1 (TAK1) and mitogen-activated protein kinase kinase kinase kinase 2 (MAP4K2)” (J Med Chem, 2015)
